Data from paper PMC5684143, “New melanocortin-like peptide of E. coli can suppress inflammation via the mammalian melanocortin-1 receptor (MC1R): possible endocrine-like function for microbes of the gut” (NPJ Biofilms and Microbiomes, 2017).

Columns and labels:
[1] = system: RAW 264.7 cells; assay: HMGB1-induced TNF release by RAW 264.7 macrophage-like cells; assay type: cell-based, murine
Procedure: Fig. 1 MECO-1 attenuates HMGB1-induced TNF release by macrophages in culture. Murine macrophage-like RAW 264.7 cells were incubated for up to 24 h with purified recombinant HMGB1 (0.1 mg/ml) in the absence or presence of MECO-1 (Panel a), or alpha-MSH (Panel b), at 10^−10 and 10^−12 M. The levels of TNF in the culture medium were determined by ELISA and expressed as mean ± SEM of two independent experiments (in duplicate). *p < 0.05, **p < 0.01 vs. control (“HMGB1 alone”). […] In panels c and d, cells were incubated with HMGB1 for 6 h with or without MECO-1 or alpha-MSH (10^−16–10^−6 M). Data represent mean ± SEM of three independent experiments performed in duplicate. With 10^−14 M peptide, results were significant at *p < 0.05, and at 10^−12 M or more were typically **p < 0.01. In our experiments, at concentrations of MECO-1, alpha-MSH, and ACTH of around 1 nM and higher, dose response curves often reverse direction, i.e., turn upward. The reversal is more clearly seen in Fig. 2. The mechanism of the reversal is not known. (Desensitization, receptor inactivation, receptor internalization, and dissociation of dimeric receptors are all plausible candidates.) As a result, the shape of the lower part of the curve and the actual inflection point may vary from experiment to experiment. This feature may be missed when results of several experiments are combined
Murine macrophage-like RAW 264.7 cells were obtained from American Type Culture Collection, and were grown in Dulbecco’s Modified Eagle’s Medium (DMEM, Life Technologies) containing 10% (vol/vol) heat-inactivated fetal bovine serum (FBS, Hyclone Lab. Inc.), penicillin 100 U/ml, and streptomycin 100 μg/ml (BioWhittaker Inc.). Cells were suspended in medium and incubated in 24-well or 48-well tissue-culture plates overnight in a humidified incubator (37 °C, 5% CO2). Growth medium was removed and replaced by Opti-MEM I serum-free medium (Life Technologies) overnight. In the experiments, cell monolayers were stimulated with HMGB1 or LPS, in the absence or presence of MECO-1 or alpha-MSH; cell-free supernatants were assayed for TNF by ELISA or HMGB1 by western blotting.
(§1) Concentrations of TNF and IL-6 were each determined using a commercially available enzyme-linked immunosorbent assay (ELISA) kit (R&D System Inc.) as previously described.[34] The levels of TNF or IL-6 were calculated with reference to standard curves.
Fig. 3 Antibody to MC1R blocks suppressant effect of MECO-1 and alpha-MSH. Murine macrophage-like RAW 264.7 cells were pretreated with specific antibodies (“anti-MC1R Ab”) against melanocortin-1 receptor (MC1R) for 10 min prior to addition of HMGB1 in the absence or presence of MECO-1 or alpha-MSH at 10^−12 M. At 6 h, the TNF content of the cell-free medium was determined by ELISA, and expressed as mean ± SEM of two independent experiments performed in duplicate. ACTH at the same concentration gave results that were indistinguishable from those of alpha-MSH and MECO-1 (data not shown)

[2] = system: human peripheral blood mononuclear cells (PBMC); assay: HMGB1-induced TNF release by human PBMC-derived macrophages; assay type: cell-based; settings: differentiated human macrophages; HMGB1 6 hours; ELISA; three independent experiments in duplicate
Procedure: Human PBMC were isolated by density gradient through Ficoll-Paque^TM PLUS centrifugation (Amersham Pharmacia Biotech), and suspended in RPMI 1640 containing 10% (vol/vol) heat-inactivated human serum (BioWhittaker Inc.), penicillin 100 U/ml, and streptomycin 100 μg/ml, and incubated at 37 °C in a humidified incubator with 5% CO2 atmosphere overnight. Non-adherent cells were discarded. Adherent monocytes were washed twice with PBS and were then suspended in 12-well and 24-well tissue culture plates and incubated in the same medium but now enriched with 2.5 ng/ml macrophage colony-stimulating factor for 5–7 days.[33] […]
as §1
Human peripheral blood mononuclear cells (PBMC) were isolated by density gradient centrifugation through Ficoll-PaqueTM PLUS, and cultured for 5-7 days in medium containing macrophage colony-stimulating factor (2.5 ng/ml). […] The content of TNF in the cell-free medium was determined by ELISA and expressed as mean ± SEM of three independent experiments performed in duplicate. *p< 0.05, **p< 0.01 vs. control (=HMGB1 alone without added melanocortin peptide).

[3] = system: NF-kappa B; assay: NF-kappa-B activity (electrophoretic mobility shift assay) in LPS-treated RAW 264.7 cells; assay type: cell-based, murine; settings: LPS 100 ng/ml; peptide 10^-8 M and 10^-6 M; 2 hours; EMSA; two separate experiments
Procedure: Nuclear extracts were prepared from 1 × 10^6 treated cells using the NE-PER nuclear extraction reagents (Pierce). DNA was biotin labeled using the biotin 3ʹ-end-labeling kit (Pierce) in a 50-µl reaction buffer and 5 pmol of double-stranded NF-kappa-B oligonucleotide (5ʹ-[…]-3ʹ and 3ʹ-[…]-5ʹ, Promega). Electrophoretic mobility shift assays for NF-κB was performed using the Lightshift Chemiluminescent Electrophoretic Mobility Shift Assay kit (Pierce) following the manufacturer’s protocol. Densitometric values for the active transcription factors were obtained using GS-800 Calibrated Densitometer Software (Biorad).[36]
RAW 264.7 cells ([…]) were incubated with LPS (100 ng/ml) with or without MECO-1 or alpha-MSH at 10^-8 M and 10^-6 M for 2 hours. Nuclear extracts were mixed with biotin-labeled oligonucleotides containing binding sites for NF-kappa B and then run on a gel, 4-20% Ready gel TBE, in an electrophoretic mobility shift assay. Data represent mean +/- SEM of two separate experiments.

## alpha-melanocyte-stimulating hormone [alpha-MSH]
[1]; 6 h incubation, dose range 10^−16–10^−6 M, three independent experiments in duplicate, p < 0.05
  peptide concentration at which significant effects on HMGB1-induced TNF release were noted: 10^−14 M
[1]; Fig. 2d dose response, RAW 264.7 cells
  inhibition of HMGB-1-induced TNF release: up to 80%
[1]; peptide 10^−12–10^−8 M
  TNF accumulation with HMGB1 on co-incubation with peptide: substantially reduced
[1]; peptide at 1 pM and 100 pM, 4 to 16 h after HMGB-1, HMGB1 0.1 mg/ml, ELISA, two independent experiments in duplicate
  HMGB-1-stimulated TNF-alpha release: blunted substantially
[2]
  attenuation of HMGB-1-induced TNF release: significant effects in the picomolar range
[3]
  rise in NF-kB activity: active in attenuating
